For the assay, the target named is T1, HERG channel (Homo sapiens, UniProt Q12809).
T1 construct: expressed in transfected cells
As to the kind of experiment: Test B: R^+-Efflux Assay for Detection of HERG Channel Blockers. It is filed as cell-based. To be noted: depolarisation-induced Rb+ efflux from Chinese hamster ovary cells stably expressing the HERG-channel; read-out: pIC50 for HERG channel blockade (converted).

This is an account of results in patent US7648985B2, “Oxabispidine compounds and their use in the treatment of cardiac arrhythmias” (AstraZeneca AB, priority 2004, dated 2010).

Each structure is given as a SMILES string.

T1 sequence (Q12809 whole entry): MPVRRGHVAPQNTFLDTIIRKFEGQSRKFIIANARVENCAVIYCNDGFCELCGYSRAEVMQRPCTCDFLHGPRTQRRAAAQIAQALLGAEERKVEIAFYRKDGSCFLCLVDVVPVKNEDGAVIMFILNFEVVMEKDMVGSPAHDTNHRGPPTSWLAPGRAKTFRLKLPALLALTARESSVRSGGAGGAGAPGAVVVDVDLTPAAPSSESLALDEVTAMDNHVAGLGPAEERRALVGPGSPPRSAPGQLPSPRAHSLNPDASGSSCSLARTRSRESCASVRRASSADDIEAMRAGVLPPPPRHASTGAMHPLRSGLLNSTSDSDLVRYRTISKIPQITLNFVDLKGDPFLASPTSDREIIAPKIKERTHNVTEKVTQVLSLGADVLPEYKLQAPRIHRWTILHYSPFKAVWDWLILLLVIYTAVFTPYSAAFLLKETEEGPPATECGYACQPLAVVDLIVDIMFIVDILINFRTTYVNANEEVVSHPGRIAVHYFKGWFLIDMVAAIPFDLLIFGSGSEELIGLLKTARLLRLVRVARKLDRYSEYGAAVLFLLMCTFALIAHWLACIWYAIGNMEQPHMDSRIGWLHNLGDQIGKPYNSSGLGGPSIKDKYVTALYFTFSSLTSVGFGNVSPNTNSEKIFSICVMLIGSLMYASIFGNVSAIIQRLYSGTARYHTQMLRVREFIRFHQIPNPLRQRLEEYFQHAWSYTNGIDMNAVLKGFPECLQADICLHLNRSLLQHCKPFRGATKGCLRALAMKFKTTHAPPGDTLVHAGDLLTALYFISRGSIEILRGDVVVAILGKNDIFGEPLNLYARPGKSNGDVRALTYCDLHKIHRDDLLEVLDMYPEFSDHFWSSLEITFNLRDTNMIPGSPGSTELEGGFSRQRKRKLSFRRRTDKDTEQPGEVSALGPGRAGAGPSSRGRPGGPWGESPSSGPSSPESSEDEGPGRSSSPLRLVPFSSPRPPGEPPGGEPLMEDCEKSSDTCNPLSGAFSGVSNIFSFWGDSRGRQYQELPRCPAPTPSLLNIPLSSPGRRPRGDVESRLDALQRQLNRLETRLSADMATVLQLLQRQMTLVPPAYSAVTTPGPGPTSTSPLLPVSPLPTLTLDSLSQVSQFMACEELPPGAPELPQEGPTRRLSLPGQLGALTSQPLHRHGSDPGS
Description: The IC50 value for HERG channel blockade was determined using a high throughput functional assay based on depolarisation-induced R^+-efflux from Chinese hamster ovary cells stably expressing the HERG-channel.
Cells were grown in Ham F12 (Life Technologies 31765-027) supplemented with 10% FBS and 0.6 mg/mL hygromycin B and were routinely passaged twice-weekly. For experimental studies, cells were plated at a density of 15,000 cells/well in Falcon, 384-well tissue culture-treated black-walled clear-bottomed plates and were thereafter incubated overnight at 37° C. in a cell culture incubator.
Following incubating overnight, cell plates were washed and a Rb^+-Load buffer (a physiological buffer containing Rb^+) was added. Cell plates were then incubated for 3 hours and were thereafter washed. Following this wash, the test compounds were added. The cell plates were then incubated for another 10 minutes and, following this incubation period, external K^+ concentration was increased in order to depolarize the cells and activate HERG channels. After a ten minute exposure period to the increased K^+ concentration, supernatants were transferred to new microplates for subsequent determination of Rb^+ content, using Atomic Absorption Spectrometry analysis. […]
Compound activity was expressed as: […]

As to `Cc1noc(C)c1S(=O)(=O)NCCN1CC2CN(CCOc3ccc(C#N)cc3)CC(C1)O2` [Example 9, N-(2-{7-[2-(4-cyanophenoxy)ethyl]-9-oxa-3,7-diazabicyclo[3.3.1]non-3-yl}ethyl)-3,5-dimethylisoxazole-4-sulfonamide], the IC50 is 3.24 µM.
